Where a name gives a salt, the structure may show the parent alone. The source made the active and inactive calls. The rule behind the calls is not given here.

One test relates to MDA-MB-231. The test is described as follows: Antiproliferative activity against human MDA-MB-231 cells measured after 72 hrs by Ez-cytox assay. In kind it is functional, cell-based. The conditions noted are these: MDA-MB-231, 72 h.
Test [1] addresses DNA topoisomerase 2-alpha (Homo sapiens) (UniProt P11388). The test is described as follows: Poison activity at topoisomerase-2 alpha in human T47D cells assessed as stabilization of enzyme-DNA cleavage complex by measuring reduction in topo-2alpha level at 50 uM measured after 2 hrs by Western blot analysis. It counts as cell-based.
In the next test the test system is HeLa. The test is described as follows: Antiproliferative activity against human HeLa cells measured after 72 hrs by EZ-Cytox assay. In kind it is functional, cell-based.
Test [2] relates to T47D. The test is described as follows: Antiproliferative activity against human T47D cells measured after 72 hrs by EZ-Cytox assay. In kind it is functional, cell-based.
For test [3], the system named is T47D. Put plainly: Induction of DNA damage in human T47D cells at 5 to 10 uM measured after 24 hrs by comet assay. It counts as functional, cell-based.
The test system of the next test is HCT-15. Put plainly: Antiproliferative activity against human HCT15 cells measured after 72 hrs by EZ-Cytox assay. It counts as functional, cell-based. To be noted: HCT-15, 72 h.
The next test deals with DU-145. The test is described as follows: Antiproliferative activity against human DU145 cells measured after 72 hrs by EZ-Cytox assay. To be noted: DU-145, 72 h. It counts as functional, cell-based.
In another test the test system is HCC70. The test is described as follows: Antiproliferative activity against human HCC70 cells measured after 72 hrs by Ez-cytox assay. In kind it is functional, cell-based. To be noted: HCC70, 72 h.
Another test concerns MDA-MB-436. Put plainly: Antiproliferative activity against human MDA-MB-436 cells measured after 72 hrs by Ez-cytox assay. It counts as functional, cell-based. The conditions noted are these: MDA-MB-436, 72 h.
The target of test [4] is DNA topoisomerase 2-alpha (Homo sapiens) (UniProt P11388). The test is described as follows: Inhibition of recombinant human topoisomerase 2alpha-mediated relaxation of supercoiled pBR322 DNA at 100 uM measured after 30 mins by ethidium bromide staining based agarose gel electrophoresis relative to control.
Test [5] has as its target T1, DNA topoisomerase 1 (Homo sapiens) (UniProt P11387).
T1 sequence (whole entry): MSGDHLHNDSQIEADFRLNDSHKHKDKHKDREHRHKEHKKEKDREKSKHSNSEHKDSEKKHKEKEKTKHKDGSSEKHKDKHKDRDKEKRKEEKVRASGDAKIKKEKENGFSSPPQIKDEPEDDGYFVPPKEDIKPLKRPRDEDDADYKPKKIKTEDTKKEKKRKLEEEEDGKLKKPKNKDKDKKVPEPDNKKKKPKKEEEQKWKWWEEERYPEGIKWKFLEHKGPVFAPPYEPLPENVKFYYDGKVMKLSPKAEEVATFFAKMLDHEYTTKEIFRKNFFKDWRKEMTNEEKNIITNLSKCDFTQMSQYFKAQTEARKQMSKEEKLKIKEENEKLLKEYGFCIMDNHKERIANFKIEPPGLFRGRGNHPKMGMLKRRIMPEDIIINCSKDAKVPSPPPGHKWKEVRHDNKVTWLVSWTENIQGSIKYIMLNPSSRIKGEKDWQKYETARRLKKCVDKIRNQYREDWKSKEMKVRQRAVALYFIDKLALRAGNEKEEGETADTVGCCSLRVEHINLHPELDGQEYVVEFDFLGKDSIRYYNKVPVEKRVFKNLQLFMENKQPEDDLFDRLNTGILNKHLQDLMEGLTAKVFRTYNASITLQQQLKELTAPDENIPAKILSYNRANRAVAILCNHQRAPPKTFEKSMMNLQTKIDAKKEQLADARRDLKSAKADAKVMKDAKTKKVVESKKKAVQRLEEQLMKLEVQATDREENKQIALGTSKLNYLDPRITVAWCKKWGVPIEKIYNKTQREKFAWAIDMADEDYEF
The test is described as follows: Inhibition of recombinant human topoisomerase 1-mediated relaxation of supercoiled pBR322 DNA at 20 uM measured after 30 mins by ethidium bromide staining based agarose gel electrophoresis relative to control.

Test [6] deals with T1, DNA topoisomerase 1 (Homo sapiens). Put plainly: Inhibition of recombinant human topoisomerase 1-mediated relaxation of supercoiled pBR322 DNA at 100 uM measured after 30 mins by ethidium bromide staining based agarose gel electrophoresis relative to control.
For test [7], the target named is DNA topoisomerase 2-alpha (Homo sapiens) (UniProt P11388). The test is described as follows: Inhibition of recombinant human topoisomerase 2alpha-mediated relaxation of supercoiled pBR322 DNA at 20 uM measured after 30 mins by ethidium bromide staining based agarose gel electrophoresis relative to control.
In a further test the test system is Calf thymus DNA. The test is described as follows: Inhibition of EtBr binding to calf thymus DNA measured after 30 mins by fluorescence assay. In kind it is nucleic-acid assay. To be noted: Bos taurus.

DNA topoisomerase 2-alpha (Homo sapiens), sequence (P11388 whole entry): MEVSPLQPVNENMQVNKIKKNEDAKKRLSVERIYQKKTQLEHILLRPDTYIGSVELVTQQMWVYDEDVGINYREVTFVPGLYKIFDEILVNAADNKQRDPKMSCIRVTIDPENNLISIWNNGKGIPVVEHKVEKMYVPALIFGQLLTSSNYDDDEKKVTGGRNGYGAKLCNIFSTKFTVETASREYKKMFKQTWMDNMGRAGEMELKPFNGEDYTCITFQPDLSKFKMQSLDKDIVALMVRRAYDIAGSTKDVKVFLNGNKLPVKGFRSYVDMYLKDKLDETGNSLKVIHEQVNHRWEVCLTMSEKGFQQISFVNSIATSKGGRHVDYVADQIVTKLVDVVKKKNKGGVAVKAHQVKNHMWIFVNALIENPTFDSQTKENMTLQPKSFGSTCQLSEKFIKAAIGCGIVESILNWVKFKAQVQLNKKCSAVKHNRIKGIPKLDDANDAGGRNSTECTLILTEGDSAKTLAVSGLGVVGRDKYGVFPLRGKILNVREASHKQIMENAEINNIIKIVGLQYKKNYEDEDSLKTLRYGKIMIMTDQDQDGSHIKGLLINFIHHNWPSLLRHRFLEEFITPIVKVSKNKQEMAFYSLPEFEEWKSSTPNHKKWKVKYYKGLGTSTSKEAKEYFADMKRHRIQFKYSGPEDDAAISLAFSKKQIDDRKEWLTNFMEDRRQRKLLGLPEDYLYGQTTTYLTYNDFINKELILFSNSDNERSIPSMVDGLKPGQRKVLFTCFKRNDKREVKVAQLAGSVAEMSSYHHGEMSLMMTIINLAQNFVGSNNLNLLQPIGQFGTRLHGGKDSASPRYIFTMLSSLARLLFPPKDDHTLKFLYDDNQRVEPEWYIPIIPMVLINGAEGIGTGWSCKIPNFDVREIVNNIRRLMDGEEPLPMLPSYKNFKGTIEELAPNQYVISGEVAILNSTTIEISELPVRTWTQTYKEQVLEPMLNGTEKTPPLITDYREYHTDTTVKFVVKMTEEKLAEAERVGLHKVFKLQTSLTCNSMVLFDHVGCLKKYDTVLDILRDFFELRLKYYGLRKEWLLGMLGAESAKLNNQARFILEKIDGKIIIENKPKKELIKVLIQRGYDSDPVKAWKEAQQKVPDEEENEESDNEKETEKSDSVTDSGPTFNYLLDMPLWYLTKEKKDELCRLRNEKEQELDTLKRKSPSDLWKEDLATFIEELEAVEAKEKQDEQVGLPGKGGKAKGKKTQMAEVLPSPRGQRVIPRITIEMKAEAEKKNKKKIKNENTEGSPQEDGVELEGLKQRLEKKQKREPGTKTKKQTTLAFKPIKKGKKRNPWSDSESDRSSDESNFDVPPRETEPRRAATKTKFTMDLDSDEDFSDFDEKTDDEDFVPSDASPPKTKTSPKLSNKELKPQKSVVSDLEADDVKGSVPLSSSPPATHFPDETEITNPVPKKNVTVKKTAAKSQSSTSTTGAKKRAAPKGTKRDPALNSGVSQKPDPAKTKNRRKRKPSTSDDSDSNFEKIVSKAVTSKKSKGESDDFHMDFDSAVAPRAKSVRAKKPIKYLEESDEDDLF

For `COc1cc([C@@H]2c3cc4c(cc3[C@@H](O[C@@H]3O[C@@H]5CO[C@@H](C)O[C@H]5[C@H](O)[C@H]3O)[C@H]3COC(=O)[C@H]23)OCO4)cc(OC)c1O` [ETOPOSIDE], the IC50 in the test on MDA-MB-231 was > 50000 nM; in the test with HeLa it was 4130 to 9750 nM; with T47D [2], 1640 to 5540 nM; in the test with HCT-15, 1270 to 6970 nM; in the test on DU-145 it was 1150 to 4490 nM; in the test with HCC70 (read-out: IC50) it was > 50000 nM. This compound returned an IC50 in the test on MDA-MB-436 of 39400 nM. Also, the result (in test [1]; with T47D [3]) was Active.
Turning to `Oc1cccc(-c2cc(-c3ccccc3Cl)c3c(n2)-c2c(O)cccc2C3)c1`, the IC50 is 3640 nM in the test with HeLa, 2510 nM in the test on T47D [2], 2430 nM in the test on HCT-15 and 3210 nM in the test on DU-145. The inhibition was determined as 80.2% in test [4], 0.2% in test [5], 79.3% in test [6] and 3.6% in test [7].
For the compound `COc1cccc2c1C(=O)c1c(O)c3c(c(O)c1C2=O)C[C@@](O)(C(=O)CO)C[C@@H]3O[C@H]1C[C@H](N)[C@H](O)[C@H](C)O1` [DOXORUBICIN HYDROCHLORIDE], the IC50 is 5180 nM in the test with MDA-MB-231; 800 to 4590 nM in the test with HeLa; 340 to 1500 nM with T47D [2]; 740 to 2020 nM with HCT-15; 870 to 2960 nM with DU-145; 1450 nM in the test on HCC70 (read-out: IC50). The half-inhibitory concentration (IC50) with MDA-MB-436 amounted to 2030 nM.
For the compound `Oc1ccc2c(c1)Cc1c(-c3ccccc3Cl)cc(-c3ccccc3O)nc1-2`, the 50% inhibitory concentration (IC50) in the test with HeLa amounted to 17900 nM; in the test on T47D [2] it was 3820 nM; in the test on HCT-15, 3130 nM; with DU-145, 4430 nM. Moreover, the inhibition in test [4] came to 55.9%; in test [5] it was 7.4%; in test [6], 37%; in [7], 3.5%.
With `Oc1ccc2c(c1)-c1nc(-c3ccccc3O)cc(-c3ccccc3Cl)c1C2`, the IC50 in the test on HeLa was > 50000 nM; in the test on T47D [2] it was 3280 nM; in the test on HCT-15 it was 7980 nM; with DU-145, 3990 nM. Further, the inhibition stood at 74.1% in test [4], 14.8% in test [5], 59.1% in test [6] and 38.2% in test [7].
With `Oc1ccc(-c2cc(-c3ccc(C(F)(F)F)cc3)nc3c2Cc2c(O)cccc2-3)cc1`, the IC50 is 6540 nM in the test on HeLa, 2010 nM with T47D [2], > 50000 nM with HCT-15 and 2110 nM with DU-145. Moreover, the inhibition in [4] stood at 91.3%; in test [5] it was 0%; in test [6] it was 32.8%; in test [7], 11.1%.
Regarding `Oc1cccc(-c2cc(-c3ccccc3C(F)(F)F)nc3c2Cc2c(O)cccc2-3)c1`, the IC50 in the test on HeLa was found to be 3790 nM; in the test on T47D [2], 1460 nM; in the test on HCT-15 it was 3390 nM; in the test with DU-145 it was 1800 nM. The inhibition in [4] was found to be 89.5%; in test [5], 0%; in test [6], 65.7%; in test [7], 2.1%.
Take `Oc1cccc(-c2cc(-c3ccccc3Cl)c3c(n2)-c2ccc(O)cc2C3)c1`: the half-maximal inhibitory concentration (IC50) in the test with HeLa came to 6480 nM; in the test on T47D [2] it was 2840 nM; in the test with HCT-15 it was 3820 nM; in the test with DU-145, 2350 nM. Also, the inhibition in test [4] stood at 91.3%; in [5], 6.3%; in [6] it was 77.4%; in [7], 20%.
For `Oc1ccc(-c2cc(-c3ccccc3Cl)c3c(n2)-c2cccc(O)c2C3)cc1`, the IC50 in the test with HeLa was determined as 3720 nM; in the test with T47D [2], 1730 nM; in the test on HCT-15, 2420 nM; in the test with DU-145, 5840 nM. For the same compound, the inhibition stood at 97% in [4], 0% in [5], 62.9% in test [6] and 13% in test [7].
As for `CC[C@@]1(O)C(=O)OCc2c1cc1n(c2=O)Cc2cc3ccccc3nc2-1` [CAMPTOTHECIN], the IC50 is 24000 nM with MDA-MB-231; 500 to 1390 nM with HeLa; 250 to 1980 nM in the test on T47D [2]; 49 to 350 nM in the test on HCT-15; 50 to 810 nM in the test with DU-145; 44 nM with HCC70. Further, the IC50 with MDA-MB-436 worked out at 31900 nM.
As for `Oc1ccc(-c2cc(-c3ccc(C(F)(F)F)cc3)nc3c2Cc2cc(O)ccc2-3)cc1`, the IC50 in the test with HeLa is 4800 nM; in the test on T47D [2] it was 1910 nM; in the test on HCT-15, 2630 nM; in the test with DU-145, 1140 nM. Besides, the inhibition in [4] is 83.2%; in [5], 0%; in [6] it was 87.4%; in [7], 1.1%.
For `Oc1cccc(-c2cc(-c3ccccc3Cl)c3c(n2)-c2cc(O)ccc2C3)c1`, the IC50 came out at 5000 nM in the test on HeLa, 2910 nM with T47D [2], 2500 nM with HCT-15 and 2030 nM with DU-145. In addition, the inhibition amounted to 93.2% in [4], 6.3% in [5], 55.9% in [6] and 13.8% in [7].
As for `COc1cc(NS(C)(=O)=O)ccc1Nc1c2ccccc2nc2ccccc12`, the inhibition result with Calf thymus DNA was “Dose-dependent effect”.
As to `Oc1ccc(-c2cc(-c3cccc(C(F)(F)F)c3)nc3c2Cc2cc(O)ccc2-3)cc1`, the IC50 was 4520 nM in the test with HeLa, 1430 nM with T47D [2], 3470 nM with HCT-15 and 1900 nM with DU-145. Moreover, the inhibition in test [4] worked out at 88.7%; in test [5], 0.3%; in [6] it was 55.8%; in test [7], 4.6%.
`Oc1ccc(-c2cc(-c3ccc(C(F)(F)F)cc3)nc3c2Cc2ccc(O)cc2-3)cc1`: the IC50 turned out to be 5510 nM in the test with HeLa, 1360 nM with T47D [2], 5030 nM in the test on HCT-15 and 2980 nM in the test on DU-145. The inhibition in test [4] was 83.1%; in [5], 0%; in test [6], 100%; in test [7], 0.5%.
Regarding `Oc1cccc(-c2cc(-c3ccc(C(F)(F)F)cc3)nc3c2Cc2cccc(O)c2-3)c1`, the IC50 with HeLa is 6660 nM; in the test on T47D [2] it was 2140 nM; in the test with HCT-15, 11300 nM; in the test with DU-145 it was 2220 nM. Also, the inhibition stood at 100% in [4], 0% in test [6] and 0% in test [7].

The record behind these values is ChEMBL document CHEMBL4373715, “Discovery and Biological Evaluations of Halogenated 2,4-Diphenyl Indeno[1,2-b]pyridinol Derivatives as Potent Topoisomerase IIα-Targeted Chemotherapeutic Agents for Breast Cancer” (J Med Chem, 2019).
